These results are taken from patent US20240252694A1, “CONJUGATES COMPRISING COVALENT BINDERS FOR TARGETING INTRACELLULAR KRAS G12C PROTEINS” (RayzeBio, Inc., priority 2021, published 2024).

Where two headings read alike, the source gives them in different places.

Experiment [1] concerns human ERK1 dually phosphorylated at T202/Y204 and ERK2. Nature of the experiment: Phosphorylated ERK1/ERK2 ELISA. The experiment is classed as cell-based. Conditions: phosphorylated ERK in cell lysates after treatment with compounds, sandwich ELISA, cell line not stated. On the procedure: An ERK phosphorylation ELISA kit was used to characterize compounds for KRAS-based cell activity. The sandwich ELISA (RnD Systems. Catalog #DYC1018B) measures human ERK1 that is dually phosphorylated at T202/Y204 and ERK2. Cell lysates from cells before and after treatment with compounds were prepared using kit manufacturer protocols.
All reagents were prepared following the kit's protocol. The wells of a 96-well microtiter plate were coated with 100 μL of 8.0 μg/mL of capture antibody in PBS. The plate was sealed and left to incubate overnight at ambient temperature. After incubation, the wells were washed with 400 μL of Wash Buffer for a total of 3 washes. Wells were then blocked by adding 300 μL of Block Buffer to each well and incubated at ambient temperature for 1-2 hours. After removal of the Block Buffer by aspirating and washing, 100 μL of standards and samples were added to the plate in duplicates and incubated for 2 hours at ambient temperature. The aspiration and wash steps were repeated to remove unbound standard and samples and 100 μL of 400 ng/mL detection antibody was applied to each well. After 2 hours at ambient temperature, detection antibody was removed by washing and 100 μL of Streptavidin-HRP was added to each well. Incubation of Streptavidin-HRP was at ambient temperature for 20 minutes, after which Streptavidin-HRP was removed by washing, 100 μL of Substrate Solution was added to each well and incubated for 20 minutes before 50 μL of Stop Solution was added to each well.
The optical density of each well was immediately analyzed at 450 nm with a wavelength correction at 540 nm. The standards were plotted by averaging the optical density for each replicate and fitted with a four-parameter logistic curve fit. Concentrations of phosphorylated ERK in cell lysate samples were determined by extrapolation from the standard curve and then adjusted for any dilution factors.

Another experiment addresses T1, KRAS (G12C) (Homo sapiens, UniProt P01116, G12C).
T1 construct: purchased BPS Bioscience 79859
Nature of the experiment: KRAS G12C Nucleotide Exchange Assay (fixed GTP concentration). The experiment is classed as biochemical. As for the experimental part: A KRAS (G12C) Nucleotide Exchange Assay kit was used to evaluate compound antagonistic binding. The assay kit (BPS Bioscience. Catalog #79859) utilizes KRAS (G12C) labeled with BODIPY-GDP to determine if compounds can affect the nucleotide exchange (GDP to GTP) in KRAS signaling, Compounds were typically characterized using both protocols: fixed GTP concentrations and fixed inhibitor concentrations.
All reagents were prepared following manufacturer's protocol. 5 μL BODIPY-GDP and 10 μL of KRAS buffer were added to each well. A 3-fold serial dilution of compound in 5% DMSO was prepared. Typically, compounds were tested in the range of 0 μM to 50 μM, but the range could be modified depending on the characterization needs. 5 μL of diluted compound was added to the wells and the plate was centrifuged briefly to ensure all components were mixed before incubation at ambient temperature. After incubation for 2 hours, 10 μM GTP and 25 mM EDTA were mixed at a 1:1 ratio and 5 μL was added to the wells. The plate was then incubated for 1 hour at ambient temperature. After incubation, fluorescence was measured at […].
Data was analyzed by plotting fluorescence vs GTP concentration for control wells and compound wells.

Setting [2] is: KRAS (G12C) labeled with BODIPY-GDP, fixed GTP concentration, 2 hours compound incubation, fluorescence readout, read-out: IC50.

T1 sequence (P01116 1-188 isoform P01116-2 G12C): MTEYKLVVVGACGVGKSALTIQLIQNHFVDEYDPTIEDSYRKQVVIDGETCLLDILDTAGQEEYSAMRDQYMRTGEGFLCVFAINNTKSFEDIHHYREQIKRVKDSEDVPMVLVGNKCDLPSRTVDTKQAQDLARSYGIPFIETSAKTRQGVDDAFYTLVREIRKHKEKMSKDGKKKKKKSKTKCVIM

Turning to `C=CC(=O)N1CCN(c2nc(OC[C@@H]3CCCN3CCCC(=O)OCc3cccc(I)c3)nc3c2CCN(c2cccc4cccc(Cl)c24)C3)C[C@@H]1CC#N` [Ex-6, (3-iodophenyl)methyl 4-[(2S)-2-[[7-(8-chloro-1-naphthyl)-4-[(3S)-3-(cyanomethyl)-4-prop-2-enoyl-piperazin-1-yl]-6,8-dihydro-5H-pyrido[3,4-d]pyrimidin-2-yl]oxymethyl]pyrrolidin-1-yl]butanoate], in experiment [1] (Homo sapiens), the IC50 is less than 100 nM. In the case of `C=CC(=O)N1CCN(c2nc(OC[C@@H]3CCCN3CCCOCc3cccc(I)c3)nc3c2CCN(c2cccc4cccc(Cl)c24)C3)C[C@@H]1CC#N` [Ex-2, 2-[(2S)-4-[7-(8-chloro-1-naphthyl)-2-[[(2S)-1-[3-[(3-iodophenyl)methoxy]propyl]pyrrolidin-2-yl]methoxy]-6,8-dihydro-5H-pyrido[3,4-d]pyrimidin-4-yl]-1-prop-2-enoyl-piperazin-2-yl]acetonitrile], the IC50 is 1000 to 10000 nM on KRAS (G12C) (setting [2]) and 100 to 1000 nM in experiment [1] (Homo sapiens). For `C=CC(=O)N1CCN(c2nc(OC[C@@H]3CCCN3CCCCOCc3cccc(I)c3)nc3c2CCN(c2cccc4cccc(Cl)c24)C3)C[C@@H]1CC#N` [Ex-3], in that order: 1000 to 10000 nM and 100 to 1000 nM.

On to `C=CC(=O)N1CCN(c2nc(OC[C@@H]3CCCN3CCCOC(=O)c3cccc(I)c3)nc3c2CCN(c2cccc4cccc(Cl)c24)C3)C[C@@H]1CC#N` [Ex-4], for which, in experiment [1] (Homo sapiens), the half-maximal inhibitory concentration (IC50) is less than 100 nM. On to `C=CC(=O)N1CCN(c2nc(OC[C@@H]3CCCN3C)nc3c2CCN(c2cccc4cccc(I)c24)C3)C[C@@H]1CC#N` [Ex-9, 2-[(2S)-4-[7-(8-iodo-1-naphthyl)-2-[[(2S)-1-methylpyrrolidin-2-yl]methoxy]-6,8-dihydro-5H-pyrido[3,4-d]pyrimidin-4-yl]-1-prop-2-enoyl-piperazin-2-yl]acetonitrile], for which the IC50 on KRAS (G12C) (setting [2]) was 1000 to 10000 nM; in experiment [1] (Homo sapiens) it was less than 100 nM.

For the molecule `C=CC(=O)N1CCN(c2nc(OC[C@@H]3CCCN3CCC(=O)O)nc3c2CCN(c2cccc4cccc(I)c24)C3)C[C@@H]1CC#N` [Ex-10], the IC50 in experiment [1] (Homo sapiens) is less than 100 nM.

As to `C=CC(=O)N1CCN(c2nc(OC[C@@H]3CCCN3CCCCNC(=O)CN3CCN4CCN5CCN(CC3)CC(=O)[O][Lu]([O]C(=O)C4)[O]C(=O)C5)nc3c2CCN(c2cccc4cccc(Cl)c24)C3)C[C@@H]1CC#N` [Lu-CHL-003, N-[4-[(2S)-2-[[7-(8-chloro-1-naphthyl)-4-[(3S)-3-(cyanomethyl)-4-prop-2-enoyl-piperazin-1-yl]-6,8-dihydro-5Hpyrido[3,4-d]pyrimidin-2-yl]oxymethyl]pyrrolidin-1-yl]butyl]-2-(3,16,19-trioxo-2,17,18-trioxa-5,8,11,14-tetrazaλ3-lutetatricyclo[9.6.3,25,14]docosan-8-yl)acetamide], the half-inhibitory concentration (IC50) at KRAS (G12C) is less than 1000 nM; in experiment [1], 1000 to 10000 nM. For the molecule `C=CC(=O)N1CCN(c2nc(OC[C@@H]3CCCN3CCC(C)(C)OC(=O)c3cccc(I)c3)nc3c2CCN(c2cccc4cccc(Cl)c24)C3)C[C@@H]1CC#N` [Ex-8, [3-[(2S)-2-[[7-(8-chloro-1-naphthyl)-4-[(3S)-3-(cyanomethyl)-4-prop-2-enoyl-piperazin-1-yl]-6,8-dihydro-5Hpyrido[3,4-d]pyrimidin-2-yl]oxymethyl]pyrrolidin-1-yl]-1,1-dimethyl-propyl]3-iodobenzoate], the IC50 in experiment [1] (Homo sapiens) lay within 100 to 1000 nM. For “N-[4-[(2S)-2-[[7-(8-chloro-1-naphthyl)-4-[(3S)-3-(cyanomethyl)-4-prop-2-enoyl-piperazin-1-yl]-6,8-dihydro-5H-pyrido[3,4-d]pyrimidin-2yl]oxymethyl]pyrrolidin-1-yl]butyL]1J-2-[(6S,9S, 12S, 21 S)-6,9,12,21-tetraethyl-3,16,19-trioxo-2,17,18-trioxa-5,8,11,14-tetraza-17,3-lutetatricyclo[9.6.3,25,14]docosan-8-yl]acetamide [Lu-CHL-005]”, the half-maximal inhibitory concentration (IC50) in experiment [1] fell in the range of 100 to 1000 nM. With `C=CC(=O)N1CCN(c2nc(OC[C@@H]3CCCN3CCCCCCNC(=O)CN3CCN4CCN5CCN(CC3)CC(=O)[O][Lu]([O]C(=O)C4)[O]C(=O)C5)nc3c2CCN(c2cccc4cccc(Cl)c24)C3)C[C@@H]1CC#N` [Lu-CHL-001, N-[6-[(2S)-2-[[7-(8-chloro-1-naphthyl)-4-[(3 S)-3-(cyanomethyl)-4-prop-2-enoyl-piperazin-1-yl]-6,8-dihydro-5H-pyrido[3,4-d]pyrimidin-2-yl]oxymethyl]pyrrolidin-1-yl]hexyl]-2-(3,16,19-trioxo-2,17,18-trioxa-5,8,11,14-tetraza-1λ3-lutetatricyclo[9,6,3,25,14]docosan-8-yl)acetamide], the half-maximal inhibitory concentration (IC50) (against KRAS (G12C); in experiment [1]) was 1000 to 10000 nM throughout. For `C=CC(=O)N1CCN(c2nc(OC[C@@H]3CCCN3CC(CO)CO)nc3c2CCN(c2cccc4cccc(I)c24)C3)C[C@@H]1CC#N` [Ex-14, 2-[(2S)-4-[2-[I(2S)-1-[3-hydroxy-2-(hydroxymethyl)propylpyrrolidin-2-yl]methoxy]-7-(8-iodo-1-naphthyl)-6,8-dihydro-5H-pyrido(3,4-d]pyrimidin-4-yl]-1-prop-2-enoyl-piperazin-2-yl]acetonitrile], the half-inhibitory concentration (IC50) in experiment [1] (Homo sapiens) is less than 100 nM. Take `C=CC(=O)N1CCN(c2nc(OC[C@@H]3CCCN3CCC(C)(C)C(=O)O)nc3c2CCN(c2cccc4cccc(I)c24)C3)C[C@@H]1CC#N` [Ex-12, 4-[(2S)-2-[[4-[(3S)-3-(cyanomethyl)-4-pop-2-enoyl-piperazin-1-yl]-7-(8-iodo-1-naphthyl)-6,8-dihydro-5H-pyrido[3,4-d]pyrimidin-2-yl]oxymethyl]pyrrolidin-1-yl]-2,2-dimethyl-butanoic acid]: the IC50 in experiment [1] (Homo sapiens) was less than 100 nM. As for `C=CC(=O)N1CCN(c2nc(OC[C@@H]3CCCN3CCCNC(=O)c3cccc(I)c3)nc3c2CCN(c2cccc4cccc(Cl)c24)C3)C[C@@H]1CC#N` [Ex-5, N-[3-[(2S)-2-[[7-(8-chloro-1-naphthyl)-4-[(3S)-3-(cyanomethyl)-4-prop-2-enoyl-piperazin-1-yl]-6,8-dihydro-5H-pyrido[3,4-d]pyrimidin-2-yl]oxymethyl]pyrrolidin-1-yl]propyl]-3-iodo-benzamide], the half-inhibitory concentration (IC50) (on KRAS (G12C) (setting [2]); in experiment [1] (Homo sapiens)) was 1000 to 10000 nM throughout.

Consider `C=CC(=O)N1CCN(c2nc(OC[C@@H]3CCCN3CCOCc3cccc(I)c3)nc3c2CCN(c2cccc4cccc(Cl)c24)C3)C[C@@H]1CC#N` [Ex-1, 2-[(2S)-4-[7-(8-chloro-1-naphthyl)-2-[[(2S)-1-[2-[(3-iodophenyl)methoxy]ethyl]pyrrolidin-2-yl]methoxy]-6,8-dihydro-5H-pyrido[3,4-d]pyrimidin-4-yl]-1-prop-2-enoyl-piperazin-2-yl]acetonitrile], for which the IC50 in experiment [1] (Homo sapiens) fell in the range of 100 to 1000 nM. On the same count and under the same terms, the result for `C=CC(=O)N1CCN(c2nc(OC[C@@H]3CCCN3CC(O)CO)nc3c2CCN(c2cccc4cccc(I)c24)C3)C[C@@H]1CC#N` (some centres unmarked) [Ex-13] reads less than 100 nM. In the case of `C=CC(=O)N1CCN(c2nc(OC[C@@H]3CCCN3CCCCCCNC(=O)CN3CCN(CC(=O)O)CCN(CC(=O)O)CCN(CC(=O)O)CC3)nc3c2CCN(c2cccc4cccc(Cl)c24)C3)C[C@@H]1CC#N` [CHL-001, 2-[4,7-bis(carboxymethyl)-10-[2-[6-[(2S)-2-[[7-(8-chloro-1-naphthyl)-4-[(3S)-3-(cyanomethyl)-4-prop-2-enoyl-piperazin-1-yl]-6,8-dihydro-5H-pyrido[3,4-d]pyrimidin-2-yl]oxymethyl]pyrrolidin-1-yl]hexylamino]-2-oxo-ethyl]-1,4,7,10-tetrazacyclododec-1-yl]acetic acid], in experiment [1], the IC50 is not below 10000 nM. Consider `C=CC(=O)N1CCN(c2nc(OC[C@@H]3CCCN3CCCC(=O)O)nc3c2CCN(c2cccc4cccc(I)c24)C3)C[C@@H]1CC#N` [Ex-11, 4-[(2S)-2-[[4-[(3S)-3-(cyanomethyl)-4-prop-2-enoyl-piperazin-1-yl]-7-(8-iodo-1-naphthyl)-6,8-dihydro-5H-pyrido(3,4-d]pyrimidin-2-yl]oxymethyl]pyrrolidin-1-yl]butanoic acid], for which the half-inhibitory concentration (IC50) in experiment [1] (Homo sapiens) was less than 100 nM.
